Data from US8881823B2, “Environmentally friendly low temperature breaker systems and related methods” (Halliburton Energy Services, Inc., priority 2011, dated 2014).
Read-outs that look alike come from different tables or passages of the source.

Experiments:
[1] = Miscibility and pH of breaker systems in fresh water; format: physicochemical; details: breaker system in fresh water, 150° F. for 16 hours
Experimental: Several chelating agents and acids (breaker systems) were tested for their calcium carbonate dissolving capacity and miscibility in fresh water. Tests of the breaker systems were performed by adding a known volume of breaker system to a volume of brine needed to fill 100 ml in a jar. The jars were then sealed and swirled to mix the components. Samples containing 5%, 10%, or 20% v/v of chelating agents and acids were prepared. The jars were then placed in a static oven at 150° F. for 16 hours. Afterwards, miscibility of the components was observed and the pH of each mixture was tabulated.

[2] = Calcite dissolving capacity of breaker systems; format: physicochemical; details: 2.5 g BARACARB 5 in 50 mL test fluid, one hour
Experimental: The calcite dissolving capacity of each breaker system was determined in the following manner. A known amount of a technical grade calcium carbonate (commercially available from Halliburton under the tradename “BARACARB 5”) was dried in an oven for 2 hours. […] The solution was subsequently filtered with a 1 micron fiber glass filter paper.

[3] = Initial and over time miscibility and pH in potassium formate brines; format: physicochemical; details: for After Static Aging: overnight 150° F.; for pH Final: static 16 hrs @ 150° F.
Experimental: Completion breaker solutions were to be tested at 5%, 10%, and 20% by volume concentrations in each of the brines. The initial miscibility and the miscibility after static aging overnight at 150° F. were observed. Also, the pH of the final mixes was measured. The different concentrations of the breaker solutions were prepared with fresh water and filtered through a 1.6 μm glass fiber filter prior to testing.
The tests were run by adding the appropriate volume of the test breaker (5%, 10%, or 20% by volume) to the volume of the test brine needed to total 100 ml in a 4 ounce jar, sealing it, and swirling to mix the components. Observation was noted of the compatibility of the components.

[4] = Biodegradability, OECD 301 D Closed Bottle Test
Excerpt: The same protocol was used to test EDTA (“DISSOLVINE AM3-40” available from AkzoNobel Corporate) and sodium acetate.

[5] = Chemical oxygen demand (COD) test; format: physicochemical
Excerpt: Table 2 compares the biodegradability of GLDA and EDTA and summarizes chemical oxygen demand (COD) tests which indirectly measures the amount of organic compounds in water.

[6] = Compatibility and dissolution ability in potassium formate brine; format: physicochemical
Experimental: In this Example, the compatibility and dissolution ability of various breaker systems with formate brine were evaluated. […] For each sample a 20% v/v breaker sample was prepared in three different concentrations of potassium formate brine (11 ppg, 12 ppg, and 13 ppg).
To determine the compatibility of each breaker with the potassium formate brine, each sample was checked for the formation of formate salts. This precipitation was indicative of an incompatibility of the breaker system with the formate brine. Samples in which precipitation was observed are noted with an asterisk (*).
The dissolution ability of the breaker systems was also tested in the various concentration of formate brine. […] The jars were then dried in an 90° F. oven for 16 hours. After the elapsed time, the amount of carbonate that remained was weighed and tabulated. The difference in weight represented the amount of carbonate that was dissolved by the breaker system and/or precipitated out as a result of being incompatible with the formate brine.

[7] = 5% by volume, potassium formate brine 11.0 lb/gal
[8] = 5% by volume, potassium formate brine 12.0 lb/gal
[9] = 5% by volume, potassium formate brine 13.0 lb/gal
[10] = 10% by volume, potassium formate brine 11.0 lb/gal
[11] = 10% by volume, potassium formate brine 12.0 lb/gal
[12] = 10% by volume, potassium formate brine 13.0 lb/gal
[13] = 20% by volume, potassium formate brine 11.0 lb/gal
[14] = 20% by volume, potassium formate brine 12.0 lb/gal
[15] = 15% (so in the source), potassium formate brine 13.0 lb/gal

For `O=C(O)CN(CCOCCOCCN(CC(=O)O)CC(=O)O)CC(=O)O` [EGTA], the pH [1] was 11, the “% Carbonate Complexed or Dissolved” value [2] was 9.28% and the “Final Weight of BARACARB 5, g” value [2] was 2.32 g.

In the case of `Cl.NC(N)=O` [Synthetic acid (HCl salt of urea), HCl salt of urea], the “After Static Aging” value [3, 7] is reported as “Slight haze”, the “pH Final” value [3, 7] is reported as 9.9 and the “Initial Observation” value [3, 8] is reported as “Clear, totally soluble”. The “After Static Aging” value [3, 8] was “Very slight separation”, the “pH Final” value [3, 8] was 11.4 and the “After Static Aging” value [3, 9] was “Hazy”. For the same compound, the “pH Final” value [3, 9] was 12.2, the “pH Final” value [3, 10] was 7.0 and the “pH Final” value [3, 11] was 9.4. The “pH Final” value [3, 12] was 11.0, the “pH Final” value [3, 13] was 6.0 and the “pH Final” value [3, 14] was 7.0. The “pH Final” value ([3]; 20% by volume, potassium formate brine 13.0 lb/gal) was 7.5, the “solubility / miscibility in the potassium formate brines” value ([3]; tested concentrations, 11.0-13.0 lb/gal brines) was “not soluble in the brines, but dispersed evenly” and the pH [1] was 0.88.

For `O=C([O-])CC(NC(CC(=O)[O-])C(=O)[O-])C(=O)[O-].[Na+].[Na+].[Na+].[Na+]` (stereo not drawn) [Iminodisuccinate, sodium salt], the pH [1] was 11.3, the “% Carbonate Complexed or Dissolved” value [2] was 5.2% and the “Final Weight of BARACARB 5, g” value [2] was 2.37 g.

In the case of `O=C(O)CN(CCO)CCN(CC(=O)O)CC(=O)O` [HEDTA], the “biodegradability (in words)” value [4] is reported as “do not meet this standard”.

For `O=C(O)CN(CCN(CC(=O)O)CC(=O)O)CC(=O)O` [EDTA, reference compound], the COD [5] was roughly 315 mg/g, the “compatibility with the formate brine” value ([6]; 20% v/v breaker, 11, 12 and 13 ppg potassium formate, precipitation of formate salts = incompatible) was “only compatible with the formate brine at the lowest tested concentration” and the “% Dissolved or precipitated out” value ([6]; 20% v/v breaker, 11 ppg Potassium Formate) was 92%. For the same compound, the “Amount of carbonate remaining” value ([6]; 20% v/v breaker, 11 ppg Potassium Formate, 2.5 g calcium carbonate, 16 hours, * = precipitation of formate salts) was 0.21 g, the “% Dissolved or precipitated out” value ([6]; 20% v/v breaker, 12 ppg Potassium Formate) was 89% and the “Amount of carbonate remaining, g” value ([6]; 20% v/v breaker, 12 ppg Potassium Formate, 2.5 g calcium carbonate, 16 hours, * = precipitation of formate salts) was 0.28* g. The “% Dissolved or precipitated out” value ([6]; 20% v/v breaker, 13 ppg Potassium Formate) was 56%, the “Amount of carbonate remaining, g” value ([6]; 20% v/v breaker, 13 ppg Potassium Formate, 2.5 g calcium carbonate, 16 hours, * = precipitation of formate salts) was 1.10* g and the “biodegradability (in words)” value ([4]; OECD 301D protocol) was “do not meet this standard”. For the same compound, the Biodegradability ([4]; Table 2) was “Difficult”.

In the case of `N.N.O=C(O)CN(CCN(CC(=O)O)CC(=O)O)CC(=O)O` [EDTA ammonium salt, reference compound], the “Initial Observation” value [3, 7] is reported as “Clear, totally soluble”, the “After Static Aging” value [3, 7] is reported as “Clear, totally soluble †” and the “pH Final” value [3, 7] is reported as 9.6. The “Initial Observation” value [3, 8] was “Clear, totally soluble”, the “After Static Aging” value [3, 8] was “Clear, totally soluble †” and the “pH Final” value [3, 8] was 10.8. The “Initial Observation” value [3, 9] was “Clear, totally soluble”, the “After Static Aging” value [3, 9] was “Clear, totally soluble †” and the “pH Final” value [3, 9] was 11.4. For the same compound, the “Initial Observation” value [3, 10] was “Clear, totally soluble”, the “After Static Aging” value [3, 10] was “Clear, totally soluble †” and the “pH Final” value [3, 10] was 8.6. For the same compound, the “Initial Observation” value [3, 11] was “Clear, totally soluble”, the “After Static Aging” value [3, 11] was “Clear, totally soluble †” and the “pH Final” value [3, 11] was 9.8. For the same compound, the “Initial Observation” value [3, 12] was “Clear, totally soluble”, the “After Static Aging” value [3, 12] was “Clear, totally soluble †” and the “pH Final” value [3, 12] was 10.7. The “Initial Observation” value [3, 15] was “Clear, totally soluble”, the “After Static Aging” value [3, 15] was “Clear, totally soluble †” and the “pH Final” value [3, 15] was 9.9. For the same compound, the “Initial Observation” value [3, 13] was “Clear, totally soluble”, the “After Static Aging” value [3, 13] was “Clear, totally soluble †” and the “pH Final” value [3, 13] was 7.0. For the same compound, the “Initial Observation” value [3, 14] was “Clear, totally soluble”, the “After Static Aging” value [3, 14] was “Clear, totally soluble †” and the “pH Final” value [3, 14] was 8.0. For the same compound, the pH [1] was 4.77, the “% Carbonate Complexed or Dissolved” value [2] was 38.4% and the “Final Weight of BARACARB 5, g” value [2] was 1.54 g.

For `CC(=O)[O-].[Na+]` [sodium acetate], the “biodegradability (in words)” value ([4]; OECD 301D protocol) was “readily biodegradable”.
